The record followed here is ChEMBL document CHEMBL1201862, “PubChem BioAssay data set” (2004).

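Dose response: 5 concentrations. Exposure: 48 h. Format: 96-well plates. Endpoint: linear interpolation; highest concentration if not reached. Abbreviation: GI50, concentration required for 50% inhibition of growth.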 The source made the active and inactive calls. Rule as the data show it: active = GI50 up to about 1.1 µM and inactive = higher. Where only a bound is given, the exact number is not on record here.

What all share (assay): NCI tumour cell line growth inhibition, 48 h
The test system of assay [1] is DLD-1.
Assay [2] deals with M19-MEL.
Assay [3] relates to DMS-273.
Assay [4] concerns SNB-78.
Assay [5] has as its system DMS-114.
The subject of assay [6] is RXF 631.
Assay [7] relates to HOP-18.
The test system of assay [8] is KM-20L2.
The subject of assay [9] is XF498.

With `O=c1[nH]ccc2c1ccn2C1CC(O)C(CO)O1` (configuration not stated), the GI50 in assay [1], in assay [2], in [3], in assay [4], in [5] and in assay [6] was > 100 µM (inactive) throughout. Also, the GI50 in [7] is > 100 µM (inactive).
With `CC(=O)Nc1ccc(-c2nnc(SCC(=O)Nc3ccc(Cl)cc3Cl)o2)cc1`, the GI50 in assay [1] was 35.1 µM (inactive); in [2], 51.9 µM (inactive); in [8], 42.7 µM (inactive); in [3], 39.5 µM (inactive); in assay [4], > 100 µM (inactive); in assay [5], 15.7 µM (inactive). Moreover, the GI50 in assay [7] was 55.3 µM (inactive).
On to `COC(OC)c1cc2c(cc1C(=O)[C@@]13CCC[C@@H]1NC(=O)O3)OCO2`, for which the GI50 in [1] was 79.6 µM (inactive); in [2] it was > 100 µM (inactive); in [9] it was 84.5 µM (inactive); in assay [3], > 100 µM (inactive); in assay [4], > 100 µM (inactive); in assay [5] it was > 100 µM (inactive).
Take `Cn1nc2ccccc2cc1=O`: the GI50 in assay [1], in assay [2], in assay [9], in assay [8], in assay [3] and in [4] was > 100 µM (inactive) in each case. For the same compound, the GI50 in [5], in assay [6] and in assay [7] was > 100 µM (inactive) each time.
Regarding `c1ccc2[nH]c(CNc3ccc(C4C[Se]N=N4)cc3)nc2c1` (configuration not stated), the GI50 was > 100 µM (inactive) in [1]; 41.3 µM (inactive) in [2]; 67.1 µM (inactive) in assay [3]; 21.8 µM (inactive) in assay [5]; > 100 µM (inactive) in assay [7].
With `O=C(O)CC[C@H](NC(=O)c1ccc(-n2nc3ccc(=O)cc-3[nH]c2=O)cc1)C(=O)O`, the GI50 in assay [1], in assay [2], in [8], in assay [3], in assay [4] and in [5] was > 100 µM (inactive) throughout. Besides, the GI50 in assay [6] and in assay [7] was > 100 µM (inactive) throughout.
Take `O=C1C=C(Nc2ccccc2C(=O)CC(=O)C(=O)Nc2cccc([N+](=O)[O-])c2)c2ccccc2C1=O`: the GI50 was 21.9 µM (inactive) in assay [1]; 4.45 µM (inactive) in [2]; 19.6 µM (inactive) in assay [9]; > 100 µM (inactive) in [8]; 31.1 µM (inactive) in assay [3]; 49.1 µM (inactive) in [4]. For the same compound, the GI50 is 18.5 µM (inactive) in [5] and > 100 µM (inactive) in assay [6].
As for `COc1ccc(/C(=N/NC(N)=O)C(c2ccc(OC)cc2)C2C(=O)Oc3ccccc32)cc1` (configuration not stated), the GI50 in [1], in assay [2], in assay [9], in assay [8], in [3] and in assay [4] was > 100 µM (inactive) each time. The GI50 in assay [5] and in assay [6] was > 100 µM (inactive) in each case.
With `CCCCOP1(=O)C=C(C)C(=C(Cl)Cl)C(C)=C1` (configuration not stated), the GI50 in [1] is 16.2 µM (inactive); in assay [2] it was 11.5 µM (inactive); in [9] it was 13.6 µM (inactive); in [8] it was 2.31 µM (inactive); in assay [3] it was 3.63 µM (inactive); in assay [4], 0.925 µM (active). Besides, the results for the GI50 in assay [5], in assay [6] and in [7] were 3.48 µM (inactive), 16.9 µM (inactive) and 22.7 µM (inactive), respectively.
With `CCOc1ccc(NC(=O)CC2Sc3ccccc3NC2=O)cc1` (configuration not stated), the GI50 in [1] was 88.5 µM (inactive); in assay [2], > 100 µM (inactive); in [8], > 100 µM (inactive); in assay [3], 33.4 µM (inactive); in assay [4], 57.1 µM (inactive); in assay [5] it was > 100 µM (inactive). Moreover, in assay [7], the GI50 was 20.5 µM (inactive).
`O=C1NCCS(=O)(=O)N[C@@H](CC2=CC=CCC2)C(=O)N2CCCC12` (some centres not stated): the GI50 in assay [1], in [2], in [9], in [8], in assay [3] and in [4] was > 100 µM (inactive) throughout. The GI50 in [5], in assay [6] and in assay [7] was > 100 µM (inactive) each time.
With `COC(=O)N/N=C(\C)CC(=O)Nc1ccc(Cl)cc1`, the GI50 in assay [1], in assay [2], in assay [9], in [8], in assay [4] and in assay [5] was > 100 µM (inactive) in each case. Further, the GI50 in assay [6] is > 100 µM (inactive).
For the compound `Cc1nc(C(N)=S)sc1C(=O)/C=C/c1cccc(O)c1`, the GI50 in assay [1] is > 100 µM (inactive); in assay [2], > 100 µM (inactive); in [8], > 100 µM (inactive); in assay [3], > 100 µM (inactive); in assay [4], > 100 µM (inactive); in assay [5], 68.1 µM (inactive). In addition, the GI50 in [6] and in assay [7] was > 100 µM (inactive) each time.
With `CC1OC(n2cc(F)c(=O)[nH]c2=O)CCC1=O` (configuration not stated), the GI50 in [1] was 52.5 µM (inactive); in [2], > 100 µM (inactive); in assay [8], 96.6 µM (inactive); in [3], 62.5 µM (inactive); in assay [4], > 100 µM (inactive); in [5], > 100 µM (inactive). Besides, the GI50 was 39.9 µM (inactive) in assay [6] and 65.2 µM (inactive) in [7].
As to `N#CC(NNC(=O)Cc1ccccc1)c1c(O)ccc2ccccc12` (configuration not stated), the GI50 was 3.96 µM (inactive) in [1]; 2.71 µM (inactive) in [2]; 15.8 µM (inactive) in [8]; 3.68 µM (inactive) in [3]; 13.6 µM (inactive) in assay [4]; 2.08 µM (inactive) in [5]. Besides, the GI50 in assay [7] is 4.36 µM (inactive).
With `COc1ccc(N2C(=O)C3c4[nH]c5ccccc5c4C4CCC(C(C)(C)C)CC4C3C2=O)cc1OC` (configuration not stated), the GI50 was 15.1 µM (inactive) in assay [1]; 51.1 µM (inactive) in assay [2]; 18.2 µM (inactive) in assay [9]; 36.8 µM (inactive) in assay [8]; 17.1 µM (inactive) in assay [3]; 19.3 µM (inactive) in assay [4]. In assay [7], the GI50 was 20.9 µM (inactive).
For the compound `O=c1[nH]nc2c3n[nH]c(=O)n3c3ccccc3n12`, the GI50 in [1], in assay [2], in assay [9], in [8], in assay [3] and in [4] was > 100 µM (inactive) in each case. Also, the GI50 in [5] and in assay [6] was > 100 µM (inactive) each time.
As to `OC12CC/C(=N/OCc3ccccc3)CC1c1ccccc12` (configuration not stated), the GI50 in [1], in assay [2], in assay [8], in [3], in [4] and in assay [5] was > 100 µM (inactive) throughout. For the same compound, the GI50 in assay [7] was > 100 µM (inactive).
On to `CCOC(=O)c1cc(/C=C/C(C)=C/C(=O)OC)oc1-c1ccccc1`, for which the GI50 in assay [1] is 66.7 µM (inactive); in assay [2], > 100 µM (inactive); in [9] it was > 100 µM (inactive); in assay [8], 81.5 µM (inactive); in assay [3], 92.5 µM (inactive); in assay [5], 63.5 µM (inactive). Also, the GI50 in assay [7] is 42.9 µM (inactive).
For `CCn1c2ccccc2c(=O)c2c(OC)ccc(OC)c21`, the GI50 in [2] was 74 µM (inactive); in assay [9], 34.1 µM (inactive); in assay [8], 92.5 µM (inactive); in assay [3], 30.8 µM (inactive); in [6], 49.1 µM (inactive).
As for `N#CC1=C(c2ccccc2)NN(Cc2ccccc2)C(c2ccc(Cl)cc2)CC1=O` (configuration not stated), the GI50 in [1] is 15.7 µM (inactive); in [9], 15 µM (inactive); in assay [8], 20.8 µM (inactive); in assay [3], 21.4 µM (inactive); in assay [4], 99.3 µM (inactive); in [5] it was 32.3 µM (inactive). For the same compound, the GI50 in assay [6] was 28.1 µM (inactive); in assay [7], 17 µM (inactive).
Turning to `CC1(C)COC2(OC1)C1=NS(=O)(=O)CC13CCC2C3(C)C` (configuration not stated), the GI50 in assay [1], in assay [2], in assay [9], in [8], in assay [3] and in assay [4] was > 100 µM (inactive) throughout. Moreover, the GI50 in assay [5], in [6] and in [7] was > 100 µM (inactive) each time.
As for `CCCCCCCCCCCCNC1(C)CNCCCNCCNCCCNC1`, the GI50 in assay [1] is 1.67 µM (inactive); in [2], 1.72 µM (inactive); in assay [9], 1.93 µM (inactive); in assay [8] it was 1.66 µM (inactive); in assay [3] it was 0.475 µM (active); in assay [4] it was 1.82 µM (inactive). The figures for the GI50 in assay [6] and in assay [7] were 1.93 µM (inactive) and 1.68 µM (inactive), respectively.
